Laboratory results: patent US6774126B2, “Pyrrolo[1,2-b][1,2,4]oxadiazine diones useful as nitric oxide synthase inhibitors” (Pharmacia Corporation, priority 1998, dated 2004)

System: plasma nitrites induced by endotoxin (LPS)
Assay: In Vivo Assay: Low Dose LPS, plasma nitrites in endotoxin-treated mice
Details: LPS 12.5 mg/kg i.p., plasma nitrites 5 hours post-treatment
Experimental: In Vivo Assay Mice were treated with an intraperitoneal injection of 12.5 mg/kg of endotoxin (LPS) with or without oral administration of the nitric oxide synthase inhibitors. Plasma nitrites were measured 5 hours post-treatment.

For `O=c1onc2n1CCCCC2` [Example 1, 6,7,8,9-tetrahydro-3H,5H-[1,2,4]oxadiazolo[4,3-a]azepin-3-one], the “Low Dose LPS in vivo, inhibition of rise in plasma nitrites” value (from here on “Low Dose LPS in vivo, inhibition of rise”) (compound 1 mg/kg p.o.) was 23% inh and the “Low Dose LPS in vivo, inhibition of rise” value (compound 10 mg/kg p.o.) was 72% inh.
`NCCC1CCCCc2noc(=O)n21` (stereo not shown) [Example 3, 5-(2-aminoethyl)-6,7,8,9-tetrahydro-3H,5H-[1,2,4]oxadiazolo[4,3-a]azepin-3-one, mono(trifluoroacetate)] was tested, and the “Low Dose LPS in vivo, inhibition of rise” value (compound 3 mg/kg p.o.) was 33% inh and the “Low Dose LPS in vivo, inhibition of rise” value (compound 10 mg/kg p.o.) was 64% inh.
